Results: publication PMC12631937, “Autologous Organoid‐T Cell Co‐Culture Platform for Modeling of Immune‐Mediated Drug‐Induced Liver Injury” (Advanced Science, 2025)
One block for each compound: values may come before it.

Tests used:
[1] = tested on: HLO microarrays (iPSC-derived human liver organoids); assay: Albumin secretion of HLO microarrays in culture supernatant (ELISA); format: cell-based; settings: 168 h, seven-day repeated-dose treatment, Figure 2E, read-out: Albumin release (% of control) IC50
Description: Hepatic functionality was further evaluated by measuring albumin secretion in the culture supernatant via ELISA (Figure 2A). […] Aliquots were frozen to ensure consistency across experiments. On the day of treatment, aliquots were thawed and diluted in liver maturation medium to achieve final working concentrations. Flucloxacillin (Sigma) was freshly prepared in liver maturation medium immediately prior to each dosing.

[2] = tested on: HLO microarrays (iPSC-derived human liver organoids); assay: HLO microarray cytotoxicity, DRAQ7-positive nuclei (dead cells); format: cell-based; settings: 168 h, seven-day repeated-dose treatment, Figure 2C, read-out: Cell death (% Draq7+ cells) IC50
Method: HLO microarrays were exposed to seven‐day repeated‐dose treatment of Chlorpromazine and Flucloxacillin across five half‐log‐spaced concentrations, with vehicle‐treated wells serving as controls. Following treatment, cell viability was assessed by quantifying total cellular ATP content using the CellTiter‐Glo assay, while cytotoxicity was determined by counting DRAQ7‐positive nuclei (dead cells) in organoids. Hepatic functionality was further evaluated by measuring albumin secretion in the culture supernatant via ELISA (Figure 2A). Chlorpromazine (Sigma) and Streptomycin (MCE) were dissolved in DMSO, and 5–7 serial dilutions of 200 × stock solutions were prepared alongside corresponding vehicle controls (0.5% DMSO). Aliquots were frozen to ensure consistency across experiments. On the day of treatment, aliquots were thawed and diluted in liver maturation medium to achieve final working concentrations. […] Dose‐response curves and IC50 values were determined by nonlinear regression of log‐transformed compound concentrations (6‐8 point serial dilutions including vehicle) against normalized viability data. […] To contextualize in vitro toxicity data with human exposure levels, Margin of Safety (MOS) values were calculated as the ratio of the in vitro IC50 to the compound's reported clinical maximum plasma concentration (MOS = IC50 / Cmax).

[3] = tested on: HLOs co-cultured with autologous Flucloxacillin-primed CD8+ T cells; assay: Autologous HLO - CD8+ T cell co-culture, immune-mediated hepatocyte injury; format: cell-based, human
Method: To model immune‐mediated liver injury, Flucloxacillin‐primed CD8⁺ T cells from three HLA‐B*57:01 carrier and three HLA‐B*57:01 non‐carrier donors were co‐cultured with autologous HLOs pre‐treated with Flucloxacillin (Figure 5A). Co‐cultures with unprimed CD8⁺ T cells served as controls to exclude non‐specific T cell reactivity. HLOs were generated from iPSC lines derived from donor PBMCs and exposed to 100 µM Flucloxacillin for 72 h before initiating co‐culture. On day 23 of maturation, HLOs were co‐cultured with unprimed or Flux‐primed CD8⁺ T cells to assess immune‐mediated hepatocyte injury. Liver damage was quantified using immunofluorescence‐based detection of DRAQ7⁺ dead cells and measurement of cytokeratin‐18 (CK‐18) release, a highly specific biomarker of early‐stage DILI. CK‐18, an intermediate filament protein expressed in hepatocytes and cholangiocytes but absent in immune cells, provided greater specificity for hepatocyte death than traditional markers such as LDH or ATP.
Culture supernatants were analyzed to quantify albumin and CK18 levels using sandwich ELISA kits (Albumin, Abcam, and M65 EpiDeath CK18Diapharma) according to manufacturer's protocols. TNFα and Granzyme B secretion were measured using the Luminex Discovery Assay kit (R&D Systems/Biotechne) according to the manufacturer's protocol.
Following initial 12 day priming as described above, CD8^+ T cells were stained with CFSE (5 µM, Fisher Scientific, Catalog No. 11‐0699‐42) and resuspended in an optimized co‐culture media. This media consisted of a 1:1 mixture of complete RPMI (RPMI + 1% penicillin/streptomycin and 150 IU mL^−1 IL‐2) and modified liver maturation media (excluding HGF, dexamethasone and hydrocortisone) supplemented with 10 IU mL^−1 IL‐7 and 10 IU/ml IL‐15. Labeled CD8⁺ T cells were added to mature (day 23) HLO microarray cultures at effector‐to‐target (E:T) ratios of 1:1 and 1:5. These ratios were chosen to reflect the localized enrichment of cytotoxic lymphocytes observed during immune‐mediated liver injury, including periportal CD8⁺ T cell infiltration in flucloxacillin‐induced DILI (PMID: 24 731 753).^[ [14] ^] Prior to co‐culture, HLO were pretreated with 100 µM Flucloxacillin for 72 h. The co‐culture was maintained for 72 h with media exchanges performed every 24 h. When indicated, T cell activation was induced using anti‐CD3 (1 µg ml^−1, BioLegend) and anti‐CD28 (1 µg ml^−1, BioLegend) antibodies.

[4] = reported clinical Cmax; cited from earlier work
[5] = tested on: HLO microarrays (iPSC-derived human liver organoids); assay: cells
Method: HLO microarrays were exposed to seven‐day repeated‐dose treatment of Chlorpromazine and Flucloxacillin across five half‐log‐spaced concentrations, with vehicle‐treated wells serving as controls. Following treatment, cell viability was assessed by quantifying total cellular ATP content using the CellTiter‐Glo assay, while cytotoxicity was determined by counting DRAQ7‐positive nuclei (dead cells) in organoids. Hepatic functionality was further evaluated by measuring albumin secretion in the culture supernatant via ELISA (Figure 2A).
Chlorpromazine (Sigma) and Streptomycin (MCE) were dissolved in DMSO, and 5–7 serial dilutions of 200 × stock solutions were prepared alongside corresponding vehicle controls (0.5% DMSO). Aliquots were frozen to ensure consistency across experiments. On the day of treatment, aliquots were thawed and diluted in liver maturation medium to achieve final working concentrations. Flucloxacillin (Sigma) was freshly prepared in liver maturation medium immediately prior to each dosing. HLO microarrays were treated over a 7‐day period, with a single re‐dosing and media refreshment on day 3. The highest concentrations tested for all compounds were 1000 µM.
Cell viability was assessed on day 7 using the CellTiter‐Glo 3D Cell Viability Assay (Promega, Cat. G9682). Luminescence was recorded using a Spectra Max iD3 microplate reader (Molecular Devices) following the manufacturer's recommended settings. Viability data from compound‐treated HLOs were normalized to the corresponding vehicle controls on the same plate.
Dose‐response curves and IC50 values were determined by nonlinear regression of log‐transformed compound concentrations (6‐8 point serial dilutions including vehicle) against normalized viability data. Curve fitting was performed using a variable Hill slope and constraining the top and bottom of the curve to 100 and 0, respectively (GraphPad Prism, GraphPad Software, La Jolla, CA, USA). To contextualize in vitro toxicity data with human exposure levels, Margin of Safety (MOS) values were calculated as the ratio of the in vitro IC50 to the compound's reported clinical maximum plasma concentration (MOS = IC50 / Cmax).

CD8+ T cells = assay: Monocyte-derived dendritic cell (mDC) priming assay of naïve CD8+ T cells, flow cytometry; format: cell-based, human
Description: Peripheral blood samples were collected from four HLA‐B*57:01 carriers and four HLA‐B*57:01 non‐carrier donors (Figure 4B). To generate antigen‐specific CD8⁺ T cells, we employed a monocyte‐derived dendritic cell (mDC) priming assay (Figure 4A). Naïve CD8⁺ T cells and monocytes were isolated from peripheral blood mononuclear cells (PBMCs) of each donor. mDCs were differentiated using IL‐4 and GM‐CSF, followed by maturation and activation with LPS and IFN‐γ. Mature mDCs were then loaded with Flucloxacillin or media alone and used to prime naïve CD8⁺ T cells. After priming, CD8⁺ T cells (i.e., Flucloxacillin‐primed CD8^+ T cells) were expanded in the presence of a low dose of IL‐15 for 10 days, followed by CFSE labeling and re‐stimulation with freshly loaded mDCs under the same conditions. Flow cytometry was used to assess CD8⁺ T cell maturation, proliferation, and post‐priming activation. […] T cell antigen‐specific activation efficacy was evaluated using multi‐color flow cytometry with Diva and FlowJo (BD software). T cell proliferation and activation were assessed using CFSE (1 µM, ThermoFisher) for proliferation, Human TruStain FcX for Fc receptor blocking, and a panel of antibodies including CD3 (clone UCHT1), CD8 (clone 3B5), CD4 (clone RPA‐T4), CD45RO (clone UCHL1), CD107a (clone H4A3), HLA‐DR (clone TU36), CD137 (clone 4B4), and CD69 (clone FN50). […]

[6] = Homo sapiens, 168 h, read-out: Cell Viability (% of control) IC50, ATP-based, seven-day repeated-dose treatment, Figure 2D
[7] = Homo sapiens, read-out: average IC50, average across three independent iPSC-derived HLO lines (donors), Figure S2

SMILES: Cc1onc(-c2c(F)cccc2Cl)c1C(=O)N[C@@H]1C(=O)N2[C@@H]1SC(C)(C)[C@@H]2C(=O)O [Flucloxacillin]
IC50 [1]: > 1000 µM | IC50 [2]: > 1000 µM | secretion of TNF-α and Granzyme B ([3]; primed CD8+ T cells from HLA-B*57:01 carrier donors 534 and 622): increased secretion | CK-18 release ([3]; primed CD8+ T cells from HLA-B*57:01 carrier donors 534 and 622, HLOs pre-treated with 100 µM for 72 h): significantly elevated | increase in DRAQ7+ cell death compared to T cell-free controls ([3]; primed CD8+ T cells from HLA-B*57:01 carrier donors 534 and 622, HLOs pre-treated with 100 µM for 72 h, 72 h co-culture): 4 fold | hepatocyte death or CK-18 release ([3]; primed T cells from weak-responder HLA-B*57:01 carriers and all non-carrier donors): failed to induce hepatocyte death | Cmax [4]: ~31 µM | cytotoxicity at clinically relevant exposures [5]: no cytotoxicity | IC50 [5, 6]: > 1000 µM | CD8+ T cell response to priming (CD8+ T cells; HLA-B*57:01 non-carrier donors): did not exhibit a comparable response | increase in T cell proliferation (CFSElow cells) and activation marker expression relative to media-alone priming (CD8+ T cells; two of four HLA-B*57:01-positive donors (robust responders), DCs pulsed with 1000 µM): over 2 fold

IC50 [1]: 6.36 µM | IC50 [5, 7]: 11.1 µM
SMILES: CN(C)CCCN1c2ccccc2Sc2ccc(Cl)cc21 [Chlorpromazine]
IC50 [2]: 19.7 µM | Cmax [4]: ~0.94 µM | IC50 [5, 6]: 14.5 µM | margin of safety (MOS = IC50 / Cmax) ([5]; human, 7 days): ≈ 15.3 | IC50 ([5]; read-out: Cell Viability (% of control) IC50, ATP-based, seven-day repeated-dose treatment, Figure 2D): 14.4 µM

SMILES: [H]/N=C(/N)N[C@H]1[C@H](O)[C@@H](O)[C@H](O[C@@H]2O[C@@H](C)[C@](O)(C=O)[C@H]2O[C@@H]2O[C@@H](CO)[C@H](O)[C@@H](O)[C@@H]2NC)[C@@H](N/C(N)=N\[H])[C@@H]1O [Streptomycin]
Cmax [4]: ~72.2 µM | cytotoxicity at clinically relevant exposures [5]: no cytotoxicity | IC50 [5, 7]: 341 µM
